Measurements taken from US12011436B2, “Use of NOX inhibitors for treatment of cancer” (CALLIDITAS THERAPEUTICS SUISSE SA, priority 2017, dated 2024).

System: 4T1 cancer cells mixed with BALB/C breast CAFs
Test: 4T1 breast cancer cells co-injected with CAFs into the mammary fat pad of mice, NOX4 inhibitor treatment
Format: in vivo, mouse
Conditions: 4T1+CAF tumours
Protocol: Fourteen (14) days after randomization and if the antitumor activity of NOX4/1 compounds alone or in combination is considered sufficient, tumors from 5 satellite mice per group are collected, weighed and the tumor is cut in 2 fragments. One fragment is cut into slices 4 mm thick and fixed in 4% neutral buffered formalin for 24 to 48 h, and then embedded in paraffin (Histosec®, Merck, Darmstadt, Germany). One fragment is embedded in tissue Freezing Medium (Microm Microtech, France), snap-frozen in isopentane cooled over liquid nitrogen and stored at […] until processing. Immunohistochemical stains for CD3, CD4 and CD8 are performed on paraffin-embedded tissue sections using standard techniques (Biodoxis, France). The number of CD3, CD4 and CD8 immunopositive cells per field are counted. When 4T1 cancer cells (0.5×105) are used, those are injected in PBS s.c into the upper mammary fat pad of female mice aged 8-10 weeks. Cells are either injected on their own, or mixed with 2.5×105 BALB/C breast CAFs isolated from transgenic BALBneuT spontaneous stromal-rich breast tumours. […] GKT137831 was reconstituted in 1.2% Methyl Cellulose (Sigma) with 0.1% Polysorbate (Sigma) and administered by oral gavage 5×/week at 40 mg/kg. Control mice received vehicle by oral gavage. For longer term dosing, 15 initial doses were given as stated, but reduced to 3×/week for 3 weeks at 50 mg/kg, then 2×/week for 3 weeks at 60 mg/kg. The anti PD-1 antibody (Bioxcell; RMP1-14) was given via […]) injection. 300 μg of the antibody or the IgG2a isotype control (Bioxcell) were given when tumours were palpable every other day, totaling 3 doses. For the data presented under FIG. 1, tumours were measured every 2-3 days by electronic skin caliper from longest width and length. Tumour volume was calculated using the formula 4/3πXr3, where the radius (r) was calculated from tumour width and length measurement to provide an average diameter value. Mice were randomized into groups based on tumour volume so that no statistical difference occurred between mean tumour volumes between groups before treatments began. […]

CN(C)c1cccc(-c2c3c(=O)n(-c4ccccc4Cl)[nH]c3cc(=O)n2C)c1 [GKT, 2-(2-chlorophenyl)-4-[3-(dimethylamino)phenyl]-5-methyl-1H-pyrazolo [4,3-c]pyridine-3,6(2H,5H)-dione] was tested, and the “SMA-positive CAF in tumours (immunochemistry)” value (FIG. 1B) was “significantly reduces”, the “CD8+ T-cell location in tumour (immunochemistry)” value (FIG. 1C) was “relocation of CD8+ T-cells from the tumour edge into the centre of the tumour” and the “tumour volume vs vehicle alone” value (day 15, after 8 days of treatment, oral gavage 40 mg/kg 5x/week, FIG. 1A) was “significantly smaller”.
